Source: patent EP0908457B1, “3-(1,2-benzisothiazol- and isoxazol-5-Y1)-2,4(1H,3H)-pyrimidinedione or thione and 3-(1,2-benzisothiazol- and isoxazol-5-y1)-4(3H)-pyrimidinone or thione herbicidal agents” (BASF AKTIENGESELLSCHAFT, priority 1997, dated 1999)

How the values were obtained:
[1] = system: Echinochloa oryzoides (Ard.) Fritsch.; experiment: Preemergence weed control under flooded paddy conditions, ECHORC (Watergrass (Calif.)); format: in vivo; settings: preemergence, flooded paddy, rated three to four weeks after treatment
Cyperus iria = experiment: Preemergence weed control under flooded paddy conditions, CYPIR (Rice Flatsedge); format: in vivo; settings: preemergence, flooded paddy, rated three to four weeks after treatment
[2] = system: Cyperus serotinus, Rottb.; experiment: Preemergence weed control under flooded paddy conditions, CYPSE (Flatsedge); format: in vivo; settings: preemergence, rated three to four weeks after treatment
[3] = system: Monochoria vaginalis, Presl.; experiment: Preemergence weed control under flooded paddy conditions, MOOVA (Monochoria); format: in vivo; settings: preemergence, flooded paddy, rated three to four weeks after treatment
Sagittaria pygmaea, L. = experiment: Preemergence weed control under flooded paddy conditions, SAGPY (Arrowhead (Pygmaea)); format: in vivo; settings: preemergence, flooded paddy, rated three to four weeks after treatment
[4] = system: Oryza sativa, (L.) Tebonnet; experiment: Rice tolerance to post-transplant applications under flooded paddy conditions (Example 187), ORYSAT (Rice, Tebonnet); settings: rated three to four weeks after treatment

Structure (SMILES) | ECHORC herbicidal rating ([1]; 0.0320 kg/ha) | ECHORC herbicidal rating ([1]; 0.0620 kg/ha) | ECHORC herbicidal rating ([1]; 0.1250 kg/ha) | ECHORC herbicidal rating ([1]; 0.2500 kg/ha) | CYPIR herbicidal rating (Cyperus iria; 0.0320 kg/ha) | CYPIR herbicidal rating (Cyperus iria; 0.0620 kg/ha) | CYPIR herbicidal rating (Cyperus iria; 0.1250 kg/ha) | CYPIR herbicidal rating (Cyperus iria; 0.2500 kg/ha) | CYPSE herbicidal rating ([2]; 0.0320 kg/ha) | CYPSE herbicidal rating ([2]; 0.0620 kg/ha) | CYPSE herbicidal rating ([2]; 0.1250 kg/ha) | CYPSE herbicidal rating ([2]; 0.2500 kg/ha) | MOOVA herbicidal rating ([3]; 0.0320 kg/ha) | MOOVA herbicidal rating ([3]; 0.0620 kg/ha) | MOOVA herbicidal rating ([3]; 0.1250 kg/ha) | MOOVA herbicidal rating ([3]; 0.2500 kg/ha) | SAGPY herbicidal rating (Sagittaria pygmaea, L.; 0.0320 kg/ha) | SAGPY herbicidal rating (Sagittaria pygmaea, L.; 0.0620 kg/ha) | SAGPY herbicidal rating (Sagittaria pygmaea, L.; 0.1250 kg/ha) | SAGPY herbicidal rating (Sagittaria pygmaea, L.; 0.2500 kg/ha) | also measured
Cn1c(C(F)(F)F)cc(=O)n(-c2ccc3snc(C(C)(C)C(=O)OCc4ccccn4)c3c2)c1=O [Example 510, 1,2-Benzisothiazole-3-acetic acid, 5-[3,6-dihydro-3-methyl-2,6-dioxo-4-(trifluoromethyl)-1(2H)-pyrimidinyl]-alpha,alpha-dimethyl-, 2-pyridylmethyl ester] | 9.0 | 9.0 | 9.0 | 9.0 | 0.0 | 3.0 | 7.0 | 8.0 | 0.0 | 0.0 | 3.0 | 5.0 | 6.0 | 7.0 | 9.0 | 9.0 | 3.0 | 4.0 | 5.0 | 6.0 | ORYSAT herbicidal rating (rice tolerance) ([4]; 0.0320 kg/ha): 0.0; ORYSAT herbicidal rating (rice tolerance) ([4]; 0.0620 kg/ha): 2.0; ORYSAT herbicidal rating (rice tolerance) ([4]; 0.1250 kg/ha): 4.0; ORYSAT herbicidal rating (rice tolerance) ([4]; 0.2500 kg/ha): 8.0
CC(C)N(C(C)C)S(=O)(=O)NC(=O)COc1ccccc1-c1nsc2ccc(-n3c(=O)cc(C(F)(F)F)n(C)c3=O)cc12 [Example 512, Acetamide, 2-{o-{5-[3,6-dihydro-3-methyl-2,6-dioxo-4-(trifluoromethyl)-1(2H)-pyrimidinyl]-1,2-benzisothiazol-3-yl}phenoxy}-N-(diisopropyl-sulfamoyl)-] | 7.0 | 7.0 | 9.0 | 9.0 | 0.0 | 2.0 | 5.0 | 5.0 | 0.0 | 0.0 | 0.0 | 0.0 | 9.0 | 9.0 | 9.0 | 9.0 | 0.0 | 0.0 | 2.0 | 4.0 | ORYSAT herbicidal rating (rice tolerance) ([4]; 0.0320 kg/ha): 0.0; ORYSAT herbicidal rating (rice tolerance) ([4]; 0.0620 kg/ha): 0.0; ORYSAT herbicidal rating (rice tolerance) ([4]; 0.1250 kg/ha): 1.0; ORYSAT herbicidal rating (rice tolerance) ([4]; 0.2500 kg/ha): 2.0
COC(=O)c1nsc2cc(F)c(-n3c(=O)cc(C(F)(F)F)n(C)c3=O)cc12 [Example 513, 1,2-Benzisothiazole-3-carboxylic acid, 5-[3,6-dihydro-3-methyl-2,6-dioxo-4-(trifluoromethyl)-1(2H)-pyrimidinyl]-6-fluoro-, methyl ester] | 0.0 | 5.0 | 7.0 | 8.0 | 4.0 | 4.0 | 6.0 | 9.0 | 9.0 | 9.0 | 9.0 | 9.0 | 9.0 | 9.0 | 9.0 | 9.0 | 9.0 | 9.0 | 9.0 | 9.0 | ORYSAT herbicidal rating (rice tolerance) ([4]; 0.0320 kg/ha): 9.0; ORYSAT herbicidal rating (rice tolerance) ([4]; 0.0620 kg/ha): 7.0; ORYSAT herbicidal rating (rice tolerance) ([4]; 0.1250 kg/ha): 9.0; ORYSAT herbicidal rating (rice tolerance) ([4]; 0.2500 kg/ha): 9.0
